Tests used:
lung tissue glycocalyx = assay: Cell surface glycocalyx in lung tissue of LPS-induced septic mice (WGA-FITC, lanthanum nitrate TEM); assay type: in vivo, mouse
Procedure: (§1) Lungs were harvested from LPS‐induced and CLP‐induced sepsis model mice, and frozen sections were prepared. HUVECs and RAW264.7 macrophages were incubated with CV122 for 3 h, and TNF‐α (20 ng mL^−1) and LPS (5 µg mL^−1) were used to stimulate cells for 1 h. Lung tissue, HUVECs, and RAW264.7 macrophages were fixed with 4% paraformaldehyde for 10 min before permeabilization with 0.5% Triton X‐100 for 10 min. The membrane was sealed with 4% skimmed milk powder and incubated at room temperature for 50 min. Primary antibodies were rabbit anti‐heparanase polyclonal antibodies overnight at 4 °C. The diluent of the secondary antibody FITC‐WGA‐lectin was kept at room temperature and protected from light for 1 h. Nuclei were stained with DAPI. After 120 s, images were acquired with a confocal microscope (LSM 800, Zeiss, Germany).
The endothelial glycocalyx was detected by electron microscopy. Mice were dissected and a needle was inserted into the left ventricle of the heart and perfused with lanthanum aldehyde, a solution consisting of 2% glutaraldehyde, 2% sucrose, 0.1 M sodium […] buffer (pH 7.3), and 2% lanthanum nitrate. Lanthanum was a trivalent cation that binds polysaccharide‐protein complexes with negatively charged glycoprotein parts.^[ [46] ^] The organs were cut into 1 mm^3 pieces and then the samples were fixed in lanthanide aldehyde fixative. […]

HUVECs [1] = assay: Cell survival assay (CCK-8) in HUVECs; assay type: cell-based, human; conditions: 50 to 200 µM
HPA = HPA expression in tissues of LPS-induced septic mice (IHC, immunofluorescence, immunoblotting); assay type: in vivo, mouse; conditions: 24 h after LPS injection
Procedure: as §1
The lung, kidney, and liver tissues of mice were fixed in paraformaldehyde. Sections underwent endogenous peroxidase quenching and antigen retrieval followed by incubation with primary antibodies or isotype‐matched controls. […]
CV122 (50 µM) was incubated with HUVECs and RAW264.7 cells for 3 h, and LPS (5 µg mL^−1) and TNF‐α (20 ng mL^−1) were incubated for 1 h. […] The BCA method was used to quantify protein. […] Blots were developed with a chemiluminescent HRP substrate, and the protein bands were detected with a chemiluminescence imager (MiniChemi610).

LPS-induced septic mice = assay: Treadmill vitality test of LPS-induced septic mice; assay type: in vivo, mouse; conditions: LPS-treated mice
Description: To further assess the protective effect of CV122 in LPS‐induced septic mice, we assessed the vitality of the mice with or without CV122 treatment by treadmill (Figure 2I).

ICAM-1 and VCAM-1 = ICAM-1 and VCAM-1 on LPS-stimulated RAW264.7 macrophages by flow cytometry; assay type: cell-based, mouse; conditions: CV122 50 µM 3 h, LPS 5 µg mL−1 1 h
Procedure: Each group of mice was euthanized 24 h after LPS injection, spleens were harvested, red blood cells were lysed to detect splenocyte apoptosis, and the ratio of CD3^+CD4^+ T cells, CD3^+CD8^+ T cells, CD3^−CD19^+ B cells in spleen cells and lymph nodes quantified. Antibodies were: FITC‐Annexin V and PI; APC‐CD3, FITC‐CD4, PE‐CD8a, and PE‐CD19. Each group of mice was euthanized 12 h after LPS injection, Lung, kidney, and spleens were harvested, red blood cells were lysed to detect the ratio of macrophages in multiple organs, Antibodies were: FITC anti‐mouse F4/80; APC anti‐mouse CD86. Flow cytometry was used to quantify the adhesion molecules ICAM‐1 and VCAM‐1 on the surface of RAW264.7 cells and HUVECs. CV122 (50 µM) was incubated with the cells for 3 h, LPS (5 µg mL^−1) and TNF‐α (20 ng mL^−1) were used to stimulate the cells for 1 h, and the cells were collected. FITC anti‐mouse CD54 antibody and AF647 anti‐mouse CD106 antibody were incubated for 30 min at room temperature in the dark, PBS was added at 1000 rpm, and the cells were centrifuged for 7 min. A 200‐mesh copper mesh was used to filter the cells into a flow cytometer, and a flow cytometer (BD Biosciences) was used for detection.

TNF-α, IL-6, IL-1β = assay: Cytokine ELISA in serum and organs of LPS-induced septic mice; assay type: in vivo, mouse
Procedure: For LPS‐induced sepsis model experiments, twenty male C57BL/6J mice were randomly divided into four groups (n = 5 in each group). Mice in group 1 were injected with 0.9% NaCl, while mice in groups 2–4 were injected intraperitoneally with LPS (20 mg kg^−1). After 30 min, mice in group 3 were injected with 40 mg kg^−1 CV122 and mice in group 4 were injected with 40 mg kg^−1 Suramin. After 3 h, blood was taken and the lungs, liver, spleen, kidney heart, and brain were taken. For CLP experiments, the mice were euthanized 24 h after the establishment of the sepsis model. Blood samples were collected from the eyeballs of mice, the lungs were taken. These organs were ground at 0.1 g mL^−1 in PBS, centrifuged and the supernatant collected. Serum and organ tissue supernatants were used to detect cytokine levels using the mouse TNF‐α, IL‐6, IL‐1β ELISA MAXTM Deluxe Set.

HUVECs [2] = assay: Cell surface glycocalyx of TNF-α-stimulated HUVECs (WGA-FITC, atomic force microscopy); assay type: cell-based, human
Procedure: as §1
(§2) HUVECs and RAW264.7 cells in the logarithmic growth phase were digested, centrifuged, and then plated in a six‐well plate at a density of 1 × 10[5] cells per well. CV122 was incubated for 3 h, and cells were stimulated with LPS (5 µg mL^−1) and TNF‐α (20 ng mL^−1) for 5 h. Cell‐covered slides were carefully removed and placed on the stage of the atomic force microscope with needle parameters: elastic coefficient 0.4 N M^−1, sensitivity 65.63 nm V^−1, with otherwise the usual atomic force microscope (Bruker, Billerica, MA) parameters used.

RAW264.7 macrophages = assay: Cell surface glycocalyx of LPS-stimulated RAW264.7 macrophages (WGA-FITC, atomic force microscopy); assay type: cell-based, mouse
Procedure: as §1, §2

COC1OC(COS(=O)(=O)O)C(OC2OC(C(=O)O)C(OC3OC(COS(=O)(=O)O)C(OC4OC(C(=O)O)C(OC5OC(COS(=O)(=O)O)C(O)C(O)C5NS(=O)(=O)O)C(OS(=O)(=O)O)C4O)C(OS(=O)(=O)O)C3NS(=O)(=O)O)C(O)C2OS(=O)(=O)O)C(O)C1NS(=O)(=O)O (stereo not drawn) [CV122]
cell surface glycocalyx in lung tissue by WGA-FITC (lung tissue glycocalyx): integrity of the glycocalyx was rescued | lanthanum nitrate staining of lung vascular endothelial glycocalyx (TEM) (lung tissue glycocalyx): significantly restored lanthanum nitrate staining | effect on survival of HUVECs (HUVECs [1]): no significant inhibitory effect | HPA overexpression in the lungs (HPA): significantly reduced the HPA overexpression | electric shocks needed in the first 100 m (LPS-induced septic mice): reduced the electric shocks needed in the first 100 m | running distance and time to exhaustion (LPS-induced septic mice): significantly increased the running distance and extended the time to exhaustion | total electric shocks until exhaustion (LPS-induced septic mice): obviously increased the total electric shocks until exhaustion | ICAM-1 and VCAM-1 expression (ICAM-1 and VCAM-1): reversed after CV122 treatment | TNF-α, IL-6 and IL-1β levels in serum and lungs (TNF-α, IL-6, IL-1β; 40 mg kg−1, 30 min after LPS 20 mg kg−1 i.p., 3 h after LPS, vs LPS group): significantly suppressed | TNF-α, IL-6 and IL-1β in tissue extracts of brains, hearts, livers, kidneys and spleens (TNF-α, IL-6, IL-1β; 40 mg kg−1, 3 h after LPS): significantly inhibited the secretion of proinflammatory cytokines in these organs to a greater extent than Suramin | TNF-α levels in serum (TNF-α, IL-6, IL-1β; candidate screening in LPS-induced septic mouse model (Figure 1C,D)): significantly decreasing | glycocalyx integrity by WGA-FITC fluorescence (HUVECs [2]): rescued glycocalyx integrity | glycocalyx structure / surface roughness by atomic force microscopy (HUVECs [2]): reduced glycocalyx damage and resulted in a smoother surface | glycocalyx by WGA-FITC fluorescence (RAW264.7 macrophages): significantly protected the glycocalyx of macrophages | glycocalyx structure by atomic force microscopy (RAW264.7 macrophages): protected against disruption of the glycocalyx structure

Source: paper PMC11304236, “A Novel Drug Candidate for Sepsis Targeting Heparanase by Inhibiting Cytokine Storm” (Advanced Science, 2024)
